From patent publication CN110668932A, “一种共晶体及制备方法、包含共晶体的药物组合物及用途” (Individual, priority 2019, dated 2020)

What was measured:
[1] = test system: human gastric cancer SGC-7901 cells, human liver cancer Bet-7402 cells, human lung cancer H460 cells (人胃癌SGC-7901细胞、人肝癌Bet-7402细胞、人肺癌H460细胞); assay: In vivo antitumour experiment in mice (Experimental Example 1); parameters: species or system mouse; conditions: 2 mg/kg active ingredient, oral, twice daily, 15-20 days; for tumor size / weight vs negative control group: compared with negative control group; for tumor inhibition effect: mice
[2] = test system: metabolic syndrome model rats (代谢综合征模型大鼠); assay: Effect in metabolic syndrome model rats (Experimental Example 4); type: in vivo, rat; conditions: 10 mL/kg, once daily, gavage, 8 weeks; for serum LDL-C level vs control group / serum TG level vs control group: compared with control group (standard feed); for serum LDL-C level vs model group / serum TG level vs model group: compared with model group
[3] = Liver injury side effect experiment in mice, ALT and AST (Experimental Example 5); type: in vivo, mouse; conditions: 0.012 g/kg, gavage, 2 weeks, Kunming mice; for ALT / ASL: serum, compared with normal control group

COc1cc(CCC(=O)CC(=O)CCc2ccc(O)c(OC)c2)ccc1O [SHCUR, 四氢姜黄素]
tumor size / weight vs negative control group [1]: 肿瘤明显减小,低于阴性对照组
tumor inhibition effect [1]: 具有较好的抑制肿瘤的效果
serum LDL-C level vs control group [2]: 较高
serum TG level vs control group [2]: 较高
serum LDL-C level vs model group [2]: 较低
serum TG level vs model group [2]: 较低
liver injury effect [3]: 没有明显肝损伤作用
ALT [3]: 与正常对照组相近
ASL [3]: 与正常对照组相近

COc1cc(CCC(=O)CC(=O)CCc2ccc(O)cc2)ccc1O [SHDMCUR, 四氢去甲氧基姜黄素]
tumor size / weight vs negative control group [1]: 肿瘤明显减小,低于阴性对照组
tumor inhibition effect [1]: 具有较好的抑制肿瘤的效果
serum LDL-C level vs control group [2]: 较高
serum TG level vs control group [2]: 较高
serum LDL-C level vs model group [2]: 较低
serum TG level vs model group [2]: 较低
liver injury effect [3]: 没有明显肝损伤作用
ALT [3]: 与正常对照组相近
ASL [3]: 与正常对照组相近

O=C(CCc1ccc(O)cc1)CC(=O)CCc1ccc(O)cc1 [四氢双去甲氧基姜黄素]
tumor size / weight vs negative control group [1]: 肿瘤明显减小,低于阴性对照组
tumor inhibition effect [1]: 具有较好的抑制肿瘤的效果
serum LDL-C level vs control group [2]: 较高
serum TG level vs control group [2]: 较高
serum LDL-C level vs model group [2]: 较低
serum TG level vs model group [2]: 较低
liver injury effect [3]: 没有明显肝损伤作用
ALT [3]: 与正常对照组相近
ASL [3]: 与正常对照组相近

CC(=O)O[C@H]1C(=O)[C@@]2(C)[C@H]([C@H](OC(=O)c3ccccc3)[C@]3(O)C[C@H](OC(=O)[C@H](O)[C@@H](NC(=O)c4ccccc4)c4ccccc4)C(C)=C1C3(C)C)[C@]1(OC(C)=O)CO[C@@H]1C[C@@H]2O [紫杉醇]
tumor size / weight vs negative control group [1]: 肿瘤明显减小,低于阴性对照组
tumor inhibition effect [1]: 具有较好的抑制肿瘤的效果
